Values quoted from earlier work as cited in PMC8279981, “A first-in-human, phase 1 study of the NEDD8 activating enzyme E1 inhibitor TAS4464 in patients with advanced solid tumors” (Investigational New Drugs, 2021).
Like-named read-outs stand apart in the source and are kept apart here.

What was measured:
[1] = test system: rats; parameters: method as in PMID 27551465, PMID 22927439; details: cited from earlier work
[2] = test system: cells derived from macrophages; parameters: method as in PMID 22927439; details: cited from earlier work
[3] = test system: bleomycin-induced idiopathic pulmonary fibrosis models; parameters: method as in PMID 28469786; details: cited from earlier work
[4] = test system: patients; parameters: method as in PMID 26561559, PMID 25733005, PMID 27056178, PMID 26423795; details: clinical trials; cited from earlier work

NS(=O)(=O)OC[C@@H]1C[C@@H](n2ccc3c(N[C@H]4CCc5ccccc54)ncnc32)C[C@@H]1O [MLN4924]
AST, ALT, sorbitol dehydrogenase ([1]; combination of TNF-α and MLN4924): Increases in laboratory values
AST, ALT, sorbitol dehydrogenase ([1]; rats, MLN4924 administration alone): no increases in AST, ALT, or sorbitol dehydrogenase
production of TNF-α [2]: suppress the production of TNF-α
efficacy in pulmonary fibrosis models [3]: efficacy in bleomycin-induced idiopathic pulmonary fibrosis models has been shown
abnormal liver function tests (ALT and AST increased) [4]: one of the major AEs
